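Growth conditions: 96-well plates. Treatment: test compound, 48 hours, 5 concentrations. Analysis: linear interpolation between bracketing concentrations; unreached endpoints set to highest concentration. GI50: concentration for 50% inhibition of growth.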 Active and inactive are the calls of the source. Rule as the data show it: active = GI50 up to about 1.1 µM and inactive = higher.
Columns and labels:
Assay in all cases: NCI-60 cell line screen, 48 h
[1] = system: SN12C
[2] = system: BT-549
[3] = system: K562
[4] = system: MDA-MB-231
[5] = system: M14
[6] = system: A549
[7] = system: HCT-116
[8] = system: SR
[9] = system: MCF7
[10] = system: NCI/ADR-RES
[11] = system: T47D
[12] = system: MOLT-4
[13] = system: HCT-15
[14] = system: SK-MEL-28
[15] = system: NCI-H522
[16] = system: UACC-62
[17] = system: SF-295
[18] = system: HOP-92
[19] = system: HT-29
[20] = system: DMS-273

SMILES | GI50 [1] | GI50 [2] | GI50 [3] | GI50 [4] | GI50 [5] | GI50 [6] | GI50 [7] | GI50 [8] | GI50 [9] | GI50 [10] | GI50 [11] | GI50 [12] | GI50 [13] [µM] | GI50 [14] | GI50 [15] | GI50 [16] | GI50 [17] | GI50 [18] | GI50 [19] | GI50 [20]
NCC1OC(n2cnc3c(=O)[nH]c(N)nc32)C(O)C1O (configuration not stated) | > 100 µM (inactive) | > 100 µM (inactive) | 1 µM (active) | > 100 µM (inactive) | > 100 µM (inactive) | > 100 µM (inactive) | > 100 µM (inactive) | < 0.01 µM (active) | 95.5 µM (inactive) | > 100 µM (inactive) | 97.1 µM (inactive) | > 100 µM (inactive) | > 100 | > 100 µM (inactive) | > 100 µM (inactive) | > 100 µM (inactive) | > 100 µM (inactive) | > 100 µM (inactive) | > 100 µM (inactive) | 
C[Si](C)(C)OC1CC(=O)OC1n1cc(F)c(=O)[nH]c1=O (configuration not stated) | 40 µM (inactive) |  | 26.4 µM (inactive) |  | 48.6 µM (inactive) | 4.38 µM (inactive) | 5.79 µM (inactive) | 2.31 µM (inactive) |  |  |  | 17.8 µM (inactive) | 9.44 | 15.8 µM (inactive) | 19.5 µM (inactive) | 10.8 µM (inactive) | > 76.9 µM (inactive) |  | 8.32 µM (inactive) | 12.9 µM (inactive)
CC(=O)N(C)C(C(=O)N1CC(C)CC1C(=O)N(C)C1C(=O)NC(CC(C)C)C(=O)N2CC(C)CC2C(=O)NC(CC(C)C)C(=O)N(C)C(C(C)C)C(=O)N2CCCC2C(=O)N(C)C(CC(C)C)C(=O)NCC(=O)OC1C)C(C)C (configuration not stated) | > 100 µM (inactive) | > 100 µM (inactive) | > 100 µM (inactive) | > 100 µM (inactive) | > 100 µM (inactive) | > 100 µM (inactive) | > 100 µM (inactive) | > 100 µM (inactive) | > 100 µM (inactive) | > 100 µM (inactive) | > 100 µM (inactive) | > 100 µM (inactive) | > 100 | > 100 µM (inactive) | > 100 µM (inactive) | > 100 µM (inactive) | > 100 µM (inactive) | > 100 µM (inactive) | > 100 µM (inactive) | 
O/N=C1\C=Cc2nn(-c3ccccc3)nc2\C1=N/O | 7.24 µM (inactive) | 3.4 µM (inactive) | 0.695 µM (active) | 4.06 µM (inactive) | 5.79 µM (inactive) | 3.05 µM (inactive) | 2.65 µM (inactive) | 3.64 µM (inactive) | 2.69 µM (inactive) | 7.24 µM (inactive) | 5.47 µM (inactive) | 2.55 µM (inactive) | 4.38 | 6.21 µM (inactive) | 2.94 µM (inactive) | 1.3 µM (inactive) | 4.89 µM (inactive) | 8.26 µM (inactive) | 4.85 µM (inactive) | 
O=C(O)CNS(=O)(=O)c1ccc(NC(=O)c2cccc([N+](=O)[O-])c2)cc1 | > 100 µM (inactive) |  | > 100 µM (inactive) |  | > 100 µM (inactive) | > 100 µM (inactive) |  |  |  |  |  | > 100 µM (inactive) | > 100 | > 100 µM (inactive) | > 100 µM (inactive) | > 100 µM (inactive) | > 100 µM (inactive) | > 100 µM (inactive) | > 100 µM (inactive) | > 100 µM (inactive)
COC1OC(COS(=O)(=O)c2ccc(C)cc2)C(O)C(OS(=O)(=O)c2ccc(C)cc2)C1OS(=O)(=O)c1ccc(C)cc1 (configuration not stated) | > 100 µM (inactive) |  | > 100 µM (inactive) |  | > 100 µM (inactive) | > 100 µM (inactive) | > 100 µM (inactive) | > 100 µM (inactive) |  |  |  | > 100 µM (inactive) | > 100 | > 100 µM (inactive) | > 100 µM (inactive) |  | > 100 µM (inactive) |  | > 100 µM (inactive) | > 100 µM (inactive)
S=C1Cc2c(-c3ccc(Cl)cc3)cc(-c3ccccc3)nc2-c2ccccc2N1 | 13.5 µM (inactive) | 16.6 µM (inactive) | > 100 µM (inactive) | 7.8 µM (inactive) | 12.8 µM (inactive) | 8.73 µM (inactive) | 11 µM (inactive) | > 100 µM (inactive) | 17.1 µM (inactive) | 12.7 µM (inactive) | 19.8 µM (inactive) | 28.7 µM (inactive) | 21.1 | 13.8 µM (inactive) | 15.7 µM (inactive) | 14.6 µM (inactive) | 14.2 µM (inactive) | 8.04 µM (inactive) | 5.47 µM (inactive) | 
N#CNc1nc(N)c(-c2ccc(Cl)cc2)c(C(=O)Nc2nccs2)n1 | > 100 µM (inactive) |  | > 100 µM (inactive) |  | > 100 µM (inactive) | > 100 µM (inactive) | > 100 µM (inactive) |  |  |  |  | > 100 µM (inactive) | > 100 | > 100 µM (inactive) | > 100 µM (inactive) | > 100 µM (inactive) | > 100 µM (inactive) | > 100 µM (inactive) | > 100 µM (inactive) | > 100 µM (inactive)
NS(=O)(=O)c1ccc(NC(=O)c2cccc3c(Nc4ccc(S(N)(=O)=O)cc4)c4ccccc4nc23)cc1 | 31.8 µM (inactive) |  | 11.3 µM (inactive) |  | > 100 µM (inactive) | > 100 µM (inactive) | 46.8 µM (inactive) |  |  |  |  | 4.5 µM (inactive) | 37.3 | > 100 µM (inactive) | 10.8 µM (inactive) | 31.8 µM (inactive) | 31.6 µM (inactive) | 33.8 µM (inactive) | 14.6 µM (inactive) | 1.85 µM (inactive)
Cc1nn(C(=O)CC(=O)Nc2ccc(Cl)cc2)c(C)c1/N=N/c1ccccc1C(=O)O | > 100 µM (inactive) |  | > 100 µM (inactive) |  | > 100 µM (inactive) | > 100 µM (inactive) | > 100 µM (inactive) |  |  |  |  | > 100 µM (inactive) | > 100 | > 100 µM (inactive) | > 100 µM (inactive) | > 100 µM (inactive) | > 100 µM (inactive) |  | > 100 µM (inactive) | > 100 µM (inactive)
C=CCOC(=O)C[C@H](NC(=O)[C@H](Cc1ccc(O)cc1)NCC(F)(F)F)C(=O)OCC=C | 45 µM (inactive) | > 100 µM (inactive) | 39.2 µM (inactive) | 72.9 µM (inactive) | 41.7 µM (inactive) | > 100 µM (inactive) | > 100 µM (inactive) | 34 µM (inactive) | 53.8 µM (inactive) | > 100 µM (inactive) | 23.6 µM (inactive) | 25.1 µM (inactive) | > 100 | 20.6 µM (inactive) | 25 µM (inactive) | 40.7 µM (inactive) | > 100 µM (inactive) | > 100 µM (inactive) | > 100 µM (inactive) | 
CCO/C([O-])=C(\C(=O)c1ccccc1)[n+]1c(C)n(C)c2ccccc21 |  |  | > 100 µM (inactive) |  | > 100 µM (inactive) | > 100 µM (inactive) | > 100 µM (inactive) |  |  |  |  | > 100 µM (inactive) | > 100 | > 100 µM (inactive) | > 100 µM (inactive) | > 100 µM (inactive) | > 100 µM (inactive) |  | > 100 µM (inactive) | > 100 µM (inactive)
CC(=O)n1c2ccccc2c2nc3nc(Oc4ccc(C)cc4)c4ccccc4c3cc21 | > 100 µM (inactive) |  | > 100 µM (inactive) |  | > 100 µM (inactive) | > 100 µM (inactive) | > 100 µM (inactive) | > 100 µM (inactive) |  |  |  | > 100 µM (inactive) | > 100 | > 100 µM (inactive) | > 100 µM (inactive) | > 100 µM (inactive) | 66.2 µM (inactive) |  | > 100 µM (inactive) | > 100 µM (inactive)
C1C[N+]23CCC[N+]2(C1)CCC3 (configuration not stated) | > 100 µM (inactive) |  | > 100 µM (inactive) |  | > 100 µM (inactive) | > 100 µM (inactive) | > 100 µM (inactive) |  |  |  |  | > 100 µM (inactive) | > 100 | > 100 µM (inactive) | > 100 µM (inactive) | > 100 µM (inactive) | > 100 µM (inactive) | > 100 µM (inactive) | > 100 µM (inactive) | > 100 µM (inactive)
O=C1CCC2(c3ccc(Cl)cc3)Nc3cc(Cl)ccc3N12 (configuration not stated) | 15.3 µM (inactive) |  | 2.31 µM (inactive) |  | 15.2 µM (inactive) | 11.5 µM (inactive) | 7.06 µM (inactive) | 5.9 µM (inactive) |  |  |  |  | 12.2 | 12.4 µM (inactive) | 10.2 µM (inactive) | 8.97 µM (inactive) | 9.04 µM (inactive) |  | 12.4 µM (inactive) | 10.4 µM (inactive)
CC(=O)[C@H]1CC[C@H]2[C@@H]3CCC4=CC(=O)CC[C@]4(C)[C@H]3CC[C@]12C [PROGESTERONE] | 18.6 µM (inactive) | 16 µM (inactive) | 10.6 µM (inactive) | 17.2 µM (inactive) | 17.5 µM (inactive) | 25.3 µM (inactive) | 14.5 µM (inactive) | > 100 µM (inactive) | 21.7 µM (inactive) | 13.7 µM (inactive) | 20.1 µM (inactive) | 12.1 µM (inactive) | 18.9 | 18.4 µM (inactive) | 15.6 µM (inactive) | 14.7 µM (inactive) | 25.9 µM (inactive) | 25.7 µM (inactive) | 15 µM (inactive) | 
O=C1NC(=O)[C@@]2(CC[C@@H](O)C2)c2ccncc21 [SESBANINE] | > 100 µM (inactive) | > 100 µM (inactive) | > 100 µM (inactive) | > 100 µM (inactive) | > 100 µM (inactive) | > 100 µM (inactive) | > 100 µM (inactive) | > 100 µM (inactive) | > 100 µM (inactive) | > 100 µM (inactive) | > 100 µM (inactive) | > 100 µM (inactive) | > 100 | > 100 µM (inactive) | > 100 µM (inactive) | > 100 µM (inactive) | > 10 µM (inactive) | > 100 µM (inactive) | > 100 µM (inactive) | 

From ChEMBL document CHEMBL1201862, “PubChem BioAssay data set” (2004)
